Measurements as given in patent US5545517A, “Selective metal ion detection using a photoluminescent indicator binding to a macromolecule-metal ion complex” (The United States of America as represented by the …, priority 1994, dated 1996).

Columns and labels:
carbonic anhydrase = settings: observed by Chen titrating the enzyme with dansylamide; cited from earlier work
[1] = biological target: T1, carbonic anhydrase from bovine erythrocytes (Bos taurus, UniProt P00921); experiment: binding of dansylamide to the zinc-containing carbonic anhydrase active site (fluorescence titration); settings: binding site when zinc is present there
T1 construct: purchased Sigma C-7500; host or cells: bovine erythrocytes
T1 sequence (P00921 2-260 limits assumed): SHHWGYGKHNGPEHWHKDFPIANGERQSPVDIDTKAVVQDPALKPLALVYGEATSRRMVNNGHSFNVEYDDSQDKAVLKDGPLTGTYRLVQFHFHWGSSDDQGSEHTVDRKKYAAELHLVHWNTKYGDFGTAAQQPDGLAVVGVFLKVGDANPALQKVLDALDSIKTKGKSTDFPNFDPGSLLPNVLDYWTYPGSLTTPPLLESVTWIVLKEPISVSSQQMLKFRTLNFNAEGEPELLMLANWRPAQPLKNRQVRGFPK
Method: N,N-dimethyl-1-aminonaphthalene-8-sulfonamide (dansylamide) was from Aldrich, HEPES (Ultrapure grade) was from Baker, and other buffer salts were reagent grade or better. […] Following passage through the chelating resin, solutions were stored in clean polyethylene containers and pipetted using plastic pipets or metal-free pipet tips; fluorescence was measured in cuvettes made of synthetic fused silica. Carbonic anhydrase from bovine erythrocytes (Sigma C-7500) was stripped of its Zn atom by prolonged dialysis at 4 C. in 50 mM sodium acetate pH 5.4 buffer containing approximately 5 mM 2,6-dipicolinic acid (Aldrich). […]
Fluorescence emission spectra and emission intensities in cuvettes were measured on a modified ISS K2 fluorometer 60 (Champaign, Ill.) using a Liconix 4114NB laser 36 emitting approximately 5 mW multimode at 326n m for excitation. […] For some measurements through the fiber the off-axis paraboloid, objective lens, and fiber holder were mounted in the ISS fluorometer in place of the cuvette holder, as described elsewhere (Thompson, R. B., Lakowicz, J. R., Anal. Chem 65 853-57 (1993)); in these experiments the chopper and lock-in were not used and the DC output of the Hamamatsu R928 photodetector was directly quantitated on the instrument's digital voltmeter after amplification. […]

[2] = storage stability in solution; type: physicochemical; settings: dilute solution, under these conditions (4° C.)

## CN(C)c1cccc2c(S(N)(=O)=O)cccc12 [dansylamide]
Carbonic anhydrase
  fluorescence enhancement: 15 fold
[1]
  Kd: 240 nM
[2]
  stability: not stable for more than a week
